Assay results taken from patent US20070135499A1 (Aerie Pharmaceuticals, Inc., priority 2005, published 2007).

Tests used:
[1] = system: porcine trabecular meshwork (PTM) cells; experiment: Cell-based porcine trabecular meshwork (PTM) assay, actin-fiber length; parameters: key: +++: More active than control-; ++: As active as control; +: Less active than control; −: Inactive; conditions: activity at 50 μM as compared to control
Method: Cell-based porcine trabecular meshwork (PTM) assay.
The anterior section of porcine eyes was harvested within 4 hours post-mortem. The iris and ciliary body were removed and trabecular meshwork cells were harvested by blunt dissection. Finely minced trabecular meshwork tissue was plated into collagen-coated 6-well plates in Medium-199 containing 20% fetal bovine serum (FBS). After two passages at confluence, cells were transferred to low-glucose DMEM containing 10% FBS. Cells were used between […].
Cells were plated into fibronectin-coated, glass multiwell plates the day before compound testing under standard culture conditions. Compounds were added to cells in the presence of 1% FBS-containing DMEM and 1% DMSO. When compounds were incubated with the cells for the duration determined to be optimal, the media and compound is removed and cells fixed for 20 minutes in 3% methanol-free paraformaldehyde. Cells were rinsed twice with phosphate buffered saline (PBS) and cells are permeabilized with 0.5% Triton X-100 for two minutes. Following an additional two washes with PBS, F-actin was stained with Alexa-fluor 488-labelled phalloidin and nuclei are stained with DAPI.
Data was reduced to the mean straight actin-fiber length and normalized to DMSO-treated control cells (100%) and 50 μM Y-27632 (0%). Y-27632 is a rho-kinase inhibitor known to result in the depolymerization of F-actin in these cells.
The cellular assay described in Reference Example Two was used to test some of the foregoing Examples 1-101, the results of which are presented below. The results are provided in terms activity at 50 μM as compared to control

GRK-6 = GRK-6 (Homo sapiens, UniProt P43250); experiment: luciferase-based biochemical kinase inhibition assay, GRK-6; conditions: same luciferase assay; read-out: GRK-6 inhibition, Ki class
Method: (§1) The inhibition of G-protein-coupled receptor kinases including hGRK-2 was determined for the hydrazide compounds using a biochemical assay. The inhibition of GRK-3, GRK-5 and GRK-6 was also determined using the same assay for some of the hydrazide derivatives.
(§2) The protein kinase inhibition was determined using a biochemical assay utilizing the light emission of a luciferase reaction. The luciferase-based assay operates on the following reaction principles: [drawing 10]
(§3) An inhibitor of GRK-2 will increase in the amount of ATP in solution, as shown. Thus, an inhibitor of GRK-2 will drive the luciferase reaction to the right, resulting in more light emitted. The amount of light emitted is proportional to the inhibition resulting from the GRK-2 inhibitor. The luciferase-based assay was also used to test some of the hydrazides for the inhibition properties towards other kinases.

hGRK-2 = molecular target: T1, hGRK-2 (Homo sapiens, UniProt P25098); experiment: luciferase-based (Kinase-Glo) biochemical kinase inhibition assay, hGRK-2; conditions: luciferase assay, casein substrate, 10 μM ATP; read-out: GRK-2 inhibition, Ki class
T1 sequence (P25098 1-689): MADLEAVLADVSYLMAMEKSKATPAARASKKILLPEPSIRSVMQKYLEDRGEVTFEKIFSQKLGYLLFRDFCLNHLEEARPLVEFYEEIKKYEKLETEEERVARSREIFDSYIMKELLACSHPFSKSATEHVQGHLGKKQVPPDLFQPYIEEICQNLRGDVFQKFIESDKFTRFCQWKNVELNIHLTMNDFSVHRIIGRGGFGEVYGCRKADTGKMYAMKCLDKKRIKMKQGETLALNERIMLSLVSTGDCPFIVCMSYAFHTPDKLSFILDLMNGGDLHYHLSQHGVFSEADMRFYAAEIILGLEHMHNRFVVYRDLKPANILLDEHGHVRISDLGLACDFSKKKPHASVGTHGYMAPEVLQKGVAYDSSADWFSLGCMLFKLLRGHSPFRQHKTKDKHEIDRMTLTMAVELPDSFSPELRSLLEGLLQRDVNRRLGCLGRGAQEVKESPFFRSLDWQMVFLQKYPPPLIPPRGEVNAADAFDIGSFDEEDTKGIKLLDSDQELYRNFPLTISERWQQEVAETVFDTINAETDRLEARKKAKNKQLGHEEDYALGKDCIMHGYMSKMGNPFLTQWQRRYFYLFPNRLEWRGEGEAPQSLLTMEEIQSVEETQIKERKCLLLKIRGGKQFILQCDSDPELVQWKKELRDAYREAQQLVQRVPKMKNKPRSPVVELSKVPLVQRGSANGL
How it was run: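 Final conditions: 50 nM hGRK2, 20 μM casein, 10 μM ATP and 50 μM test compound in 4.5% DMSO, in HEPES pH 7.5 buffer with MgCl2, orthovanadate, CHAPS, BSA and DTT. Incubation ran 90-120 min at room temperature, targeting 20-30% ATP consumption. Remaining ATP was read by luminescence with diluted Kinase-Glo containing 0.01% trypan blue.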

GRK-3 = molecular target: T2, GRK-3 (Homo sapiens, UniProt P35626); experiment: luciferase-based biochemical kinase inhibition assay, GRK-3; conditions: same luciferase assay; read-out: GRK-3 inhibition, Ki class
T2 sequence (P35626 1-688): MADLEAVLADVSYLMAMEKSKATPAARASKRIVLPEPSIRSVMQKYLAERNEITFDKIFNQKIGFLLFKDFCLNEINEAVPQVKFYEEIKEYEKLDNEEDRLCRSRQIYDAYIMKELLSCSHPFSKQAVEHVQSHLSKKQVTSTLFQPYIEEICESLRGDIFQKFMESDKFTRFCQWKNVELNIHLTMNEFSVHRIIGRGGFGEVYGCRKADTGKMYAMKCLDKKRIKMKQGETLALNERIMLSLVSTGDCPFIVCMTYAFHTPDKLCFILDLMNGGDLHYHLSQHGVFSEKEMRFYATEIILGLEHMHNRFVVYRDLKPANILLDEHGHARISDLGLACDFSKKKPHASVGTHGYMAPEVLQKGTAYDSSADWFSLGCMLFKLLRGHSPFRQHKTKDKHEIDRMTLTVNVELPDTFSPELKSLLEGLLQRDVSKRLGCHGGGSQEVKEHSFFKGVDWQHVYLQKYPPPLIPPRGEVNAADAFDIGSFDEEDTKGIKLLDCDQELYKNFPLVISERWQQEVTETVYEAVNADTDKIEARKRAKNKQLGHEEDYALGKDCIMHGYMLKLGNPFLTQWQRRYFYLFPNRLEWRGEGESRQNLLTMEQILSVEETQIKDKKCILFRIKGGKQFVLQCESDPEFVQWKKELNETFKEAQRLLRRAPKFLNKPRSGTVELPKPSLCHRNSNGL
Method: as §1, §2, §3

GRK-5 = GRK-5 (Homo sapiens, UniProt P34947); experiment: luciferase-based biochemical kinase inhibition assay, GRK-5; conditions: same luciferase assay; read-out: GRK-5 inhibition, Ki class
Method: The inhibition of G-protein-coupled receptor kinases including hGRK-2 was determined for the hydrazide compounds using a biochemical assay. […] The inhibition of GRK-3, GRK-5 and GRK-6 was also determined using the same assay for some of the hydrazide derivatives.
as §2, §3

Sequence of GRK-6 (P43250 whole entry, species assumed): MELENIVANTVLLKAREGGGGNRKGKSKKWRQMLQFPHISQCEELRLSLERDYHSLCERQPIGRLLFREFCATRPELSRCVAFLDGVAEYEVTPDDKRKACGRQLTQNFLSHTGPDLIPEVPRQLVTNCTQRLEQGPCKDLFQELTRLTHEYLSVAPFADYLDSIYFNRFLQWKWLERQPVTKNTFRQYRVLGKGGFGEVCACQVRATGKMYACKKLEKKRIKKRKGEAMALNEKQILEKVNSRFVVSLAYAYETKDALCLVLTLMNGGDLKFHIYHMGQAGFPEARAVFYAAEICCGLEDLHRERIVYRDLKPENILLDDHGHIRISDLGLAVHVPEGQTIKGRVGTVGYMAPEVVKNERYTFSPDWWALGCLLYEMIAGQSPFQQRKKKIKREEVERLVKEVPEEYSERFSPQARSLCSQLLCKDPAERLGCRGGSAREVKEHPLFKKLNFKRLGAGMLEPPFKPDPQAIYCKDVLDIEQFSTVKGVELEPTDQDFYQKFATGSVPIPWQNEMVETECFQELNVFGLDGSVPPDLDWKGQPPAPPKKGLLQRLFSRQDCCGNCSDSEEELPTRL
Sequence of GRK-5 (P34947 whole entry, species assumed): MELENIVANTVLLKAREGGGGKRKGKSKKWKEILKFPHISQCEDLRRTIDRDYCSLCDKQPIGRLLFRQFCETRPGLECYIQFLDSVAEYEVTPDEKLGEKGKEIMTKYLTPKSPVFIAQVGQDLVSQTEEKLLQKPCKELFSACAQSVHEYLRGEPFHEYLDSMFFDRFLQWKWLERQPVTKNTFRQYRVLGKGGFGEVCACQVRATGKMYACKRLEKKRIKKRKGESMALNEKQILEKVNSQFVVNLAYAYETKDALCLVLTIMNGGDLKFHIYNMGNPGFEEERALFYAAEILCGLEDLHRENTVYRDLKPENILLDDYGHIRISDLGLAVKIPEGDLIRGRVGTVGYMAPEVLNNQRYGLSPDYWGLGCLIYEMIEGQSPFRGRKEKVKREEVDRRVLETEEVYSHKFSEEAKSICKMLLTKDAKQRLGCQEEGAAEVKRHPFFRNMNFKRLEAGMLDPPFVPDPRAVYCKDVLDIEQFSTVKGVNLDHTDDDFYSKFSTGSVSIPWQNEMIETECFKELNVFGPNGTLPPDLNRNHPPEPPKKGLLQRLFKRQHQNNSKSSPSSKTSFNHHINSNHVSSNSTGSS

Structure (SMILES) | PTM Cell Assay Result [1] | Ki (GRK-6) | Ki (hGRK-2) | Ki (GRK-3) | Ki (GRK-5)
O=C(CNc1ccc(Oc2ccccc2)cc1)N/N=C/c1c(Cl)cncc1Cl | + | – | – | – | –
COc1cc(/C=N/NC(=O)CNc2cccc(Cl)c2)nc(OC)n1 | + | – | – | – | –
COc1ccc(Oc2cccc(NCC(=O)N/N=C/c3ccncc3)c2)cc1 | + | – | – | – | –
COc1cccc(NCC(=O)N/N=C/c2c(Cl)cncc2Cl)c1 [Example 5, (3-Methoxy-phenylamino)-acetic acid [1-(3,5-dichloro-pyridin-4-yl)-meth-(E)-ylidene]-hydrazide] | – | > 10000 nM | 10 to 100 nM | 10 to 100 nM | –
O=C(CNc1cccc(OCc2ccccc2)c1)N/N=C/c1c(Cl)cncc1Cl [Example 9, (3-Benzyloxy-phenylamino)-acetic acid [1-(3,5-dichloro-pyridin-4-yl)-meth-(E)-ylidene]-hydrazide] | – | > 10000 nM | 100 to 1000 nM | 100 to 1000 nM | 1000 to 10000 nM
CNC(=O)c1cccc(NCC(=O)N/N=C/c2c(Cl)cncc2Cl)c1 [Example 13, 3-{[1-(3,5-Dichloro-pyridin-4-yl)-meth-(E)-ylidene-hydrazinocarbonylmethyl]-amino}-N-methyl-benzamide] | – | > 10000 nM | 100 to 1000 nM | 100 to 1000 nM | 1000 to 10000 nM
O=C(CNc1cccc(Oc2ccccc2)c1)N/N=C/c1c(Cl)cncc1Cl [Example 15, (3-Phenoxy-phenylamino)-acetic acid [1-(3,5-dichloro-pyridin-4-yl)-meth-(E)-ylidene]-hydrazide] | – | > 10000 nM | 100 to 1000 nM | 100 to 1000 nM | 1000 to 10000 nM
COc1cccc(NCC(=O)N/N=C/c2ccncc2)c1 [Example 43, (3-Methoxy-phenylamino)-acetic acid [1-pyridin-4-yl-meth-(E)-ylidene]-hydrazide] | – | > 10000 nM | 10 to 100 nM | 10 to 100 nM | 1000 to 10000 nM
O=C(CNc1cccc(OCc2ccccc2)c1)N/N=C/c1ccncc1 [Example 47, (3-Benzyloxy-phenylamino)-acetic acid [1-pyridin-4-yl-meth-(E)-ylidene]-hydrazide] | – | – | 100 to 1000 nM | 100 to 1000 nM | 1000 to 10000 nM
CSc1cccc(NCC(=O)N/N=C/c2ccncc2)c1 [Example 48, (3-Methylsulfanyl-phenylamino)-acetic acid [1-pyridin-4-yl-meth-(E)-ylidene]-hydrazide] | – | – | 100 to 1000 nM | 100 to 1000 nM | > 10000 nM
CNC(=O)c1cccc(NCC(=O)N/N=C/c2ccncc2)c1 [Example 52, N-Methyl-3-{[1-pyridin-4-yl-meth-(E)-ylidene-hydrazinocarbonylmethyl]-amino}-benzamide] | – | – | 100 to 1000 nM | 100 to 1000 nM | > 10000 nM
O=C(CNc1cccc(Oc2ccccc2)c1)N/N=C/c1ccncc1 [Example 55, (3-Phenoxy-phenylamino)-acetic acid [1-pyridin-4-yl-meth-(E)-ylidene]-hydrazide] | – | > 10000 nM | 100 to 1000 nM | 100 to 1000 nM | > 10000 nM
NS(=O)(=O)c1cccc(NCC(=O)N/N=C/c2ccncc2)c1 [Example 63, 3-{[1-Pyridin-4-yl-meth-(E)-ylidene-hydrazinocarbonylmethyl]-amino}-benzenesulfonamide] | – | – | 100 to 1000 nM | 1000 to 10000 nM | > 10000 nM
C/C(=N\NC(=O)CNc1cccc(OCc2ccccc2)c1)c1ccncc1 [Example 87, (3-Benzyloxy-phenylamino)-acetic acid [1-pyridin-4-yl-eth-(E)-ylidene]-hydrazide] | – | – | 100 to 1000 nM | 100 to 1000 nM | > 10000 nM
COc1cccc(NCC(=O)N/N=C(\C)c2ccncc2)c1 [Example 88, (3-Methoxy-phenylamino)-acetic acid [1-pyridin-4-yl-eth-(E)-ylidene]-hydrazide] | – | > 10000 nM | 100 to 1000 nM | 100 to 1000 nM | 1000 to 10000 nM
C/C(=N\NC(=O)CNc1cccc(Oc2ccccc2)c1)c1ccncc1 [Example 89, (3-Phenoxy-phenylamino)-acetic acid [1-pyridin-4-yl-eth-(E)-ylidene]-hydrazide] | – | – | 100 to 1000 nM | 100 to 1000 nM | > 10000 nM
C/C(=N\NC(=O)CNc1cccc(C(=O)Nc2ccccc2)c1)c1ccncc1 [Example 90, N-Phenyl-3-{[1-pyridin-4-yl-eth-(E)-ylidene-hydrazinocarbonylmethyl]-amino}-benzamide] | – | – | 100 to 1000 nM | 100 to 1000 nM | > 10000 nM
O=C(CNc1cccc(C(=O)Nc2ccccc2)c1)N/N=C/c1c(Cl)cncc1Cl [Example 97, 3-{[1-(3,5-Dichloro-pyridin-4-yl)-meth-(E)-ylidene-hydrazinocarbonylmethyl]-amino}-N-phenyl-benzamide] | – | – | 100 to 1000 nM | 10 to 100 nM | 1000 to 10000 nM
O=C(CNc1cccc(C(=O)Nc2ccccc2)c1)N/N=C/c1c(Cl)cncc1Cl [drawing 112] | ++ | – | – | – | –
O=C(CNc1cccc(C(=O)Nc2ccccc2)c1)N/N=C/c1ccncc1 [drawing 113] | ++ | – | – | – | –
O=C(CNc1cccc(C(=O)Nc2cccnc2)c1)N/N=C/c1ccncc1 [drawing 114] | ++ | – | – | – | –
O=C(CNc1cccc(C(=O)NCCN2CCOCC2)c1)N/N=C/c1c(Cl)cncc1Cl [drawing 116] | + | – | – | – | –
CNC(=O)c1cccc(NCC(=O)N/N=C/c2c(Cl)cncc2Cl)c1 [drawing 118] | + | – | – | – | –
C/C(=N\NC(=O)CNc1cccc(C(=O)Nc2ccccc2)c1)c1ccncc1 [drawing 119] | + | – | – | – | –
